Reference: ChEMBL document CHEMBL1938230, “6-Position optimization of tricyclic 4-quinolone-based inhibitors of glycogen synthase kinase-3β: discovery of nitrile derivatives with picomolar potency” (Bioorg Med Chem Lett, 2012)

What was measured:
Type in all cases: cell-free
[1] = biological target: T1, Inositol-tetrakisphosphate 1-kinase (Homo sapiens) (UniProt Q13572); assay: Inhibition of human ITPK1 in HL-60 cells lysate assessed as reduction of labeling of acyl-phosphate ATP probe at 100 nM
T1 sequence (whole entry): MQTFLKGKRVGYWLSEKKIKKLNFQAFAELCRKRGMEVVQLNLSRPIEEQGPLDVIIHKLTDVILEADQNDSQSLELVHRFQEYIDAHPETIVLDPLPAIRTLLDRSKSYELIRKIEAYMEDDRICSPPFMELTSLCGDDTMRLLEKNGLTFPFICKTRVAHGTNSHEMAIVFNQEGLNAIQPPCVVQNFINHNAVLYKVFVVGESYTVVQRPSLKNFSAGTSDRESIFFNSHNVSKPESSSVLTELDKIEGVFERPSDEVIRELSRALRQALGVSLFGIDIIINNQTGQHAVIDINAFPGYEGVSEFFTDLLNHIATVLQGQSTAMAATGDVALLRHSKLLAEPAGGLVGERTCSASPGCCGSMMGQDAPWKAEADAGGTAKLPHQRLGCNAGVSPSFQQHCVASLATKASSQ

[2] = biological target: T2, Serine/threonine-protein kinase TBK1 (Homo sapiens) (UniProt Q9UHD2); assay: Inhibition of human TBK1 in HL-60 cells lysate assessed as reduction of labeling of acyl-phosphate ATP probe at 100 nM
T2 sequence (whole entry): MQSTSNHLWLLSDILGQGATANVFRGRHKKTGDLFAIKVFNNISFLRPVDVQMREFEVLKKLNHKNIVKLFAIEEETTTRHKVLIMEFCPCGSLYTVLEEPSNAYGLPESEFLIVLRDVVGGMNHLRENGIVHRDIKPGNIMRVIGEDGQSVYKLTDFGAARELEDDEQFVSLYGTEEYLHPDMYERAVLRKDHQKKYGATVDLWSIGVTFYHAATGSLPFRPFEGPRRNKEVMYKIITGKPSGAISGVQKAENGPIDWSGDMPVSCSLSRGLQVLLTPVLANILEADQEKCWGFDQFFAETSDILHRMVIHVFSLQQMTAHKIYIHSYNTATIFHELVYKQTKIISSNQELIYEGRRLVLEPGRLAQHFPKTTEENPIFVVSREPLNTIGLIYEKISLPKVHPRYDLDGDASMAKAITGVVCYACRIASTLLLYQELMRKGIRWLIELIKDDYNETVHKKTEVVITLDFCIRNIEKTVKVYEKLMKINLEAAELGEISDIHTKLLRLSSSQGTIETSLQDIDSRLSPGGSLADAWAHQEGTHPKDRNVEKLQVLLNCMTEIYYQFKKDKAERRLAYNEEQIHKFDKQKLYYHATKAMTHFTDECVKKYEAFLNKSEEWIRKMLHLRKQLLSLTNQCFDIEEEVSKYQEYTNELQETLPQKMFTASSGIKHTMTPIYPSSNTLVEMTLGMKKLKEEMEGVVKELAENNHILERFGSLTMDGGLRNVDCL

[3] = biological target: T3, Mitogen-activated protein kinase kinase kinase 5 (Homo sapiens) (UniProt Q99683); assay: Inhibition of human MAP3K5 in HL-60 cells lysate assessed as reduction of labeling of acyl-phosphate ATP probe at 100 nM
T3 sequence (whole entry): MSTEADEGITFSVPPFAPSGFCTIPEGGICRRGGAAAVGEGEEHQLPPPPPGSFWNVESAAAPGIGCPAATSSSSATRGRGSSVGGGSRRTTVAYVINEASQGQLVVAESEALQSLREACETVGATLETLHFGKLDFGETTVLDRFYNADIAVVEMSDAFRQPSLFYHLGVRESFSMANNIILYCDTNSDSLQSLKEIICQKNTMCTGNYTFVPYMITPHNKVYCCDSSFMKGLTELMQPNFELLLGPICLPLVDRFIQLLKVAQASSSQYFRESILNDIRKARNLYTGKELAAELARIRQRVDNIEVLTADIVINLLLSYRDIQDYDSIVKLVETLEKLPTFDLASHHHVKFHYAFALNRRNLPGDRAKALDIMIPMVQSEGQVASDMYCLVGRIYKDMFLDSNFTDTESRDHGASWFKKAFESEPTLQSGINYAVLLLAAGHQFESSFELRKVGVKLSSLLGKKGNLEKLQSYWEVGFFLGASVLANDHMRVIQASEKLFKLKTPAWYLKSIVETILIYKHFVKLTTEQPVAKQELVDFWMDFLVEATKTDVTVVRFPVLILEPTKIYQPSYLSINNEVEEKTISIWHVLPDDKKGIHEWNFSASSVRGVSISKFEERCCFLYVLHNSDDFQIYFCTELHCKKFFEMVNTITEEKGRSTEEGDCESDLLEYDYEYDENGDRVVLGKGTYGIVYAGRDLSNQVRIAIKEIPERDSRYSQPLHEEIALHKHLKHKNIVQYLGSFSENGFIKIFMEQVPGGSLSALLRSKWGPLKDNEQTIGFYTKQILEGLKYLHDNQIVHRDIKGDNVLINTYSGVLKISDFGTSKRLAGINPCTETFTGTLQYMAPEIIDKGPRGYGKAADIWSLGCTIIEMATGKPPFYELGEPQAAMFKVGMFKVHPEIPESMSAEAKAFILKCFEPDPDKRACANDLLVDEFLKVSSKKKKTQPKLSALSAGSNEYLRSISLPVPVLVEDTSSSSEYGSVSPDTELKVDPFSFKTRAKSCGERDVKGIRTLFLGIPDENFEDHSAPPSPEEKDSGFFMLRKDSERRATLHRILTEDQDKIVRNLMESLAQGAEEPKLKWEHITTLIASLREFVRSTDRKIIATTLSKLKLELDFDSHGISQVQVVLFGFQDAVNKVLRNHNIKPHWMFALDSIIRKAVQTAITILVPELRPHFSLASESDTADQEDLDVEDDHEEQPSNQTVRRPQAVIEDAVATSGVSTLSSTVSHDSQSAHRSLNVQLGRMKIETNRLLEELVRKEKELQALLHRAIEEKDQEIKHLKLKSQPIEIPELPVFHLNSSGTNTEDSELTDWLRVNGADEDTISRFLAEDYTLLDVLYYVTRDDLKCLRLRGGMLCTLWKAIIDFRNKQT

[4] = biological target: Serine/threonine-protein kinase 24 (Homo sapiens) (UniProt Q9Y6E0); assay: Inhibition of human MST3 in HL-60 cells lysate assessed as reduction of labeling of acyl-phosphate ATP probe at 100 nM
[5] = biological target: Serine/threonine-protein kinase OSR1 (Homo sapiens) (UniProt O95747); assay: Inhibition of human OSR1 in HL-60 cells lysate assessed as reduction of labeling of acyl-phosphate ATP probe at 100 nM
Chain of Serine/threonine-protein kinase OSR1 (Homo sapiens) (O95747 2-527 limits assumed): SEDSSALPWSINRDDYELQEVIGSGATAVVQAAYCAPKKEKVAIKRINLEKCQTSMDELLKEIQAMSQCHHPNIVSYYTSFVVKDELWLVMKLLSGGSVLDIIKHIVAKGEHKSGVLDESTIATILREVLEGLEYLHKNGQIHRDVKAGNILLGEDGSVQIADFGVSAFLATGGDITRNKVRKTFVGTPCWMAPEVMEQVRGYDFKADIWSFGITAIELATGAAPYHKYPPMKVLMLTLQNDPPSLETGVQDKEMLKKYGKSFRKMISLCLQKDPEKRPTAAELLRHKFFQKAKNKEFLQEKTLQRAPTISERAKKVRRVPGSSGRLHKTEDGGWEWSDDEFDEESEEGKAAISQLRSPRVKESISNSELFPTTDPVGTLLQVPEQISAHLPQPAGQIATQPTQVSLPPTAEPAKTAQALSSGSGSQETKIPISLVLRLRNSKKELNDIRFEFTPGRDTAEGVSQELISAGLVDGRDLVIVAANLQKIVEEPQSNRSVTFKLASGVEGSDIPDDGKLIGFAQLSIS

Chain of Serine/threonine-protein kinase 24 (Homo sapiens) (Q9Y6E0 whole entry, looked up): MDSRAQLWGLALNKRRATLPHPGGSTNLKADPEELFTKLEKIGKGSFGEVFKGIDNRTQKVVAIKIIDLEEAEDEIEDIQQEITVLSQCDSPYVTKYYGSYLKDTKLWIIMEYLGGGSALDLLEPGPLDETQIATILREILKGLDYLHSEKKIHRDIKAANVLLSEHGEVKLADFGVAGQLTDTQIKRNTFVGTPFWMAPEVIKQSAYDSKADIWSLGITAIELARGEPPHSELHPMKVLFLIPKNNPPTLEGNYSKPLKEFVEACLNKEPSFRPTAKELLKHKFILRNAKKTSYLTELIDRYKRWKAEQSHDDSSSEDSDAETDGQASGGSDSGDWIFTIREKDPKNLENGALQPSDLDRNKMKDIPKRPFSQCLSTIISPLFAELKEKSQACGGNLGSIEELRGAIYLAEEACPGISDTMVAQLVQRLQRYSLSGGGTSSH

inhibition [1] [%] | inhibition [2] [%] | inhibition [3] [%] | inhibition [4] [%] | inhibition [5] [%] | SMILES
< 35 | < 35 | < 35 | < 35 | < 35 | C[C@H]1COc2c(NCCCc3ccccn3)c(F)c(N)c3c(=O)c(C#N)cn1c23
< 35 | < 35 | < 35 | < 35 | < 35 | C[C@H]1COc2c(NCCCn3cccn3)c(F)c(N)c3c(=O)c(C(=O)O)cn1c23
< 35 | < 35 | < 35 | < 35 | < 35 | C[C@H]1COc2c(NCCCc3ccccn3)c(F)c(N)c3c(=O)c(C(=O)O)cn1c23
< 35 | < 35 | < 35 | < 35 | < 35 | C[C@H]1COc2c(NCCCn3cccn3)c(F)c(N)c3c(=O)c(C#N)cn1c23
